Measured values taken from patent US5753483A (priority 1995, dated 1998).

Key:
[1] = tested on: UDP-GlcNAc pyrophosphorylase; details: reverse direction, at 1 mM inorganic pyrophosphate
Procedure: (§1) When measured in the reverse direction, either a direct assay or an indirect assay could be used. […] The incubation mixtures contained the following components in a final volume of 50 μl: 5 mM sodium pyrophosphate, 250 uM UDP-[^3 H]GlcNAc (2.2 Ci/mmol), 100 mM Tris HCl buffer, pH 8.5, 2 mM MgCl2, and various amounts of enzyme at the different stages of purification. […] The suspension was vortexed vigorously for 2 minutes, and was then centrifuged in a microfuge. The supernatant liquid was removed and saved, and the charcoal was washed with 1 ml of water. The supernatant liquid from this wash was combined with the first supernatant liquid, and an aliquot was removed and counted, as a measure of the formation of GlcNAc-1-P.
(§2) For the indirect assay, a modification of the spectrophotometric method of Munch-Petersen, (1956) Acta Chim. Scand. […] The assay mixtures contained 50 mM Tris-HCl buffer, pH 7.5, 1 mM MgCl2, 0.5 mM ADP, 1 mM glucose, 0.5 mM NADP, 1 mM inorganic pyrophosphate, 2 mM UDP-HexNAc and 2.5 units each of nucleoside diphosphate kinase, hexokinase and glucose-6-P dehydrogenase.

[2] = tested on: UDP-GlcNAc pyrophosphorylase; details: from 10 μmol GalNAc-1-P or glucose-1-P, and UTP
Procedure: The reaction products, formed in either the forward direction (i.e., uridine diphosphate sugars), or in the reverse direction (i.e., UTP and sugar-i-P's), were isolated by chromatography on a 1×20
column of DEAE-cellulose (HCO3 -), equilibrated in 10 mM NH4 HCO3. After application of the sample, the column was washed with the same solution and the retained products were eluted with 200 ml of a linear 10 to 300 mM gradient of NH4 HCO3. Fractions were analyzed for nucleotides by measuring the absorption at 260 nm, for radioactivity by scintillation counting, and for hexosamine by the Reissig test (J. Biol. Chem., 217, 959-966, 1955) or the or the Elson Morgan assay (Wheat, R. W. (1966) Meth. Enzymol. 8, 60-78). Peak fractions were pooled and concentrated on a rotary evaporator and NH4 H CO3 was removed by evaporation in the presence of triethylamine. The triethylamine was in turn removed by evaporation in the presence of methanol.
The reaction products were identified by chromatography, either directly, or following various treatments such as digestion with phosphodiesterase or alkaline phosphatase, or acid hydrolysis. Nucleotides were identified by TLC in the following systems: PEI plates developed in 0.2M and 0.4M solutions of LiCl; cellulose plates in ethanol: 1M ammonium acetate, pH 7.3 (7:3), or silica gel plates in ethanol: 1M ammonium acetate, pH 5.0 (7:3). N-acetyl-hexosamines were released from nucleotides by mild acid hydrolysis (0.01 N HCl, 100° C., 15 minutes) and identified by chromatography on borate-treated paper in n-butanol:pyridine:water (6:4:3) as described earlier by Cardini and Leloir, (1953) Arch. Biochem. Biophys., 45, 317-324.
After deproteinization, the aqueous phase was applied to a column of DE-52 and sugar phosphates and nucleoside diphosphate sugars were separated with a gradient of NH4 HCO3, as shown in FIG. 4. […] The peak was pooled and subjected to TLC in 3 different solvent systems as described above.
The characterization of these products was also based on the products produced by phosphosdiesterase, mild acid hydrolysis and other treatments.

[3] = tested on: UDP-GlcNAc pyrophosphorylase; details: calf liver and Staphylococcus aureus preparations; cited from earlier work
enzyme from bacteria = details: cited from earlier work
[4] = target: T1, UDP-GlcNAc pyrophosphorylase (Sus scrofa, UniProt F1S210); assay: Photoaffinity labeling of purified pyrophosphorylase and its inhibition (FIG. 5); format: binding, pig; details: unlabeled UDP-GalNAc or UDP-glucose
T1 construct: both 64 and 55 kDa bands photolabelled
Procedure: Enzyme was incubated with radioactive probe in the presence or absence of various inhibitors, and some of the incubations were exposed to UV light to activate the probe. Each incubation was treated with trichloroacetic acid to precipitate the protein, and the pellet was resuspended in SDS and subjected to SDS-PAGE. Radioactive proteins were detected by exposure to film. […]

[5] = tested on: UDP-GlcNAc pyrophosphorylase; assay: Inhibition of pyrophosphorolysis of UDP-[^3 H]GlcNAc by nucleotides (FIG. 3); format: biochemical, pig; details: increasing concentrations; reverse direction
Procedure: Activity was measured in the reverse direction (i.e., production of GlcNAc-1-P) as indicated.
as §1

sheep brain enzyme = details: cited from earlier work
Pyrophosphorylase = target: T2, Pyrophosphorylase (Sus scrofa, UniProt F1S210); assay: Specificity of pyrophosphorylase (reverse direction); format: biochemical, pig
T2 construct: 64 and 55 kDa bands; native about 125 kDa
Procedure: as §1, §2
The substrate specificity of the purified enzyme was examined in both the forward and the reverse direction.

T2 sequence (F1S210 1-505): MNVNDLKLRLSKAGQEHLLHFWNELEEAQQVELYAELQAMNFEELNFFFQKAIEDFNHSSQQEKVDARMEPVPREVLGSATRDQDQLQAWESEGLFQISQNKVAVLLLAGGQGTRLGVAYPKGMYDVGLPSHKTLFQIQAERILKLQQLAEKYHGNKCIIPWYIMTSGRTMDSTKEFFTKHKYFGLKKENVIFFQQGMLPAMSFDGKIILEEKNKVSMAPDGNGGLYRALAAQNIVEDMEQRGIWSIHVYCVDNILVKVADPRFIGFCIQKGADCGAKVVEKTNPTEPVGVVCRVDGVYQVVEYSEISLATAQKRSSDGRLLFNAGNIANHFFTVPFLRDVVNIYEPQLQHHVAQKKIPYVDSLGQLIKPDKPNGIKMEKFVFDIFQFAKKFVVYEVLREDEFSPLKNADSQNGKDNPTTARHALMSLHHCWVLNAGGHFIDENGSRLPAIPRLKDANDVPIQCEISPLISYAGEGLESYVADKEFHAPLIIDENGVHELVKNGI
T1 sequence (F1S210 1-505): as above

CC(=O)N[C@H]1[C@@H](OP(=O)(O)OP(=O)(O)OC[C@H]2O[C@@H](n3ccc(=O)[nH]c3=O)[C@H](O)[C@@H]2O)O[C@H](CO)[C@H](O)[C@@H]1O [UDP-GalNAc, UDP-N-acetylgalactosamine]
Km [1]: 200 µM | Vmax [1]: 31.3 nmol/min | amount formed [2]: 8.2 µmol | amount formed, percent [2]: 82% | rate of phosphorolysis relative to UDP-GlcNAc [3]: about 2.8% | activity relative to UDP-GlcNAc (enzyme from bacteria): 2.6% | inhibition of labeling [4]: also blocked, although not nearly as effectively | inhibition of reaction with UDP-[^3 H]GlcNAc [5]: inhibited by increasing concentrations | activity as substrate (in words) (sheep brain enzyme): not with UDP-GalNAc | substrate preference, reverse direction (Pyrophosphorylase): preferred UDP-GalNAc over UDP-GlcNAc | Activity (Pyrophosphorylase; 5 mM, PP = 1 mM): 19.7 nmol/min | Relative Activity (Pyrophosphorylase; 5 mM, PP = 1 mM, UDP-GalNAc = 100): 100%
